Reference: PubChem BioAssay AID1963842 (Molecular Pharmacology Branch, DTP, NCI, 2024)

Tested on: 677734-321-R-J1-PDC complex spheroid viability
Assay: Anticancer human tumor 677734-321-R-J1-PDC patient-derived soft tissue sarcoma cell line growth inhibition [POLQ]
Conditions: for IC50: curve of first compound; for viability, T/C: stronger effect = lower value
Experimental: Multicellular complex tumor spheroid response to Polymerase (POL) inhibitors (novobiocin, ART-558, RP6685) in combination with a variety of drugs and investigational agents in selected tumor cell lines
The POL inhibitors (novobiocin, ART-558, and RP6685) were evaluated both individually and in combination with standard of care and investigational anticancer small molecules within a complex spheroid model of solid tumors. . Complex spheroids include a stromal component modeled by human endothelial cells (HUVEC) and fibroblasts modeled by human mesenchymal stem cells (MSCs). The concentration ranges selected for each drug and investigational agent were based upon clinically achievable concentrations if the clinical Cmax of the agent was known.
Compounds. The drugs and investigational agents: novobiocin (NSC847541), ART-558 (NSC835418), RP-6685 (NSC848927), peposertib (NSC802822), ceralasertib (NSC780249), elimusertib (NSC800525), camonsertib (NSC841442), AZD-1390 (NSC803789), olaparib (NSC753686), talazoparib (NSC767125), rucaparib (NSC756644), sotorasib (NSC818433), MRTX-1133 (NSC836407), SN-38 (NSC673596), topotecan (NSC609699), epotoside (NSC141540), doxorubicin (NSC123127), gemcitabine (NSC613327), 5-fluorouracil (NSC19893), paclitaxel (NSC125973), vemurafenib (NSC761431), MSA-2 (NSC828583), SN-011 (NSC837082), adavosertib (NSC754352), prexasertib (NSC758257), carboplatin (NSC241240) and oxaliplatin (NSC266046), were obtained from the National Cancer Institute (NCI) Developmental Therapeutics Program Chemical Repository (21). The FDA-approved anticancer drug set is available from the Developmental Therapeutics Program at https://dtp.cancer.gov/organization/dscb/obtaining/. […] The stock solutions were prepared in dimethyl sulfoxide (DMSO, Sigma-Aldrich, St. Louis, MO, cat. D2650), except for the platinum compounds which were prepared in saline (Quality Biological, Gaithersburg, MD, cat. 114-055-101), at 800-fold the tested concentration and stored at -70 degrees C prior to their use. All drugs and investigational agents were tested over a range starting from a high concentration at or near the clinical Cmax and decreasing in half-log increments. If the clinical Cmax for an agent had not been determined, the highest concentration tested was 10 microM, except for SN-38, which was tested at a high concentration of 1 microM.
Cell Culture. All cells were maintained in an incubator at 37 degrees C and 5% CO2 with 95% humidity. The PDC lines were cultured according to standard operating procedures established by the NCI PDMR (https://pdmr.cancer.gov). Table 3 of the manuscript, lists the cell lines along with the number of the three cell types plated to form the mct-spheroids and media for tumor cell growth. After thawing, all PDC lines, except 997537-175-T-J1-PDC and 415267-285-R-J2-PDC, were cultured in Matrigel-coated flasks prepared with a working solution of 1X Ham's F-12 nutrient mix, without supplementation (Thermo Fisher Scientific, cat. 11765054), 100 U/mL penicillin-streptomycin (Thermo Fisher Scientific, cat. 15140122), and 2.5% Matrigel (Corning Inc., Corning, NY, cat. 354248) for the first three passages. The two PDC lines 997537-175-T-J1-PDC and 415267-285-R-J2-PDC were cultured on uncoated flasks. The 857933-349-R-J2-PDC line was cultured in 6C/Colon 1B media containing advanced DMEM/F-12 (Thermo Fisher Scientific, cat. 12634028), 10 mM HEPES (Thermo Fisher Scientific, cat. 15630080), 1X GlutaMAX supplement (Thermo Fisher Scientific, cat. 35050061), 0.1 mg/mL primocin (InvivoGen, San Diego, CA, cat. ant-pm-2), 10% defined fetal bovine serum, heat inactivated (HyClone Laboratories Inc., Logan, UT, cat. SH30070.03HI), 50% L-WRN conditioned media (ATCC, cat. CRL-3276), 1.25 mM N-Acetyl-L-cysteine (Sigma-Aldrich, cat. A9165), 10 mM nicotinamide (Sigma-Aldrich, cat. N0636), 1X B-27 supplement (Thermo Fisher Scientific, cat. 17504044), 1X N-2 supplement (Thermo Fisher Scientific, cat. […]

[1] = second compound 0.0316 µM, first compound 0.0316 µM
[2] = second compound 0.0316 µM, first compound 0.1 µM
[3] = second compound 0.0316 µM, first compound 0.316 µM
[4] = second compound 0.0316 µM, first compound 1 µM
[5] = second compound 0.0316 µM, first compound 3.16 µM
[6] = second compound 0.0316 µM, first compound 10 µM
[7] = second compound 0.1 µM, first compound 0.0316 µM
[8] = second compound 0.1 µM, first compound 0.1 µM
[9] = second compound 0.1 µM, first compound 0.316 µM
[10] = second compound 0.1 µM, first compound 1 µM
[11] = second compound 0.1 µM, first compound 3.16 µM
[12] = second compound 0.1 µM, first compound 10 µM
[13] = second compound 0.316 µM, first compound 0.0316 µM
[14] = second compound 0.316 µM, first compound 0.1 µM
[15] = second compound 0.316 µM, first compound 0.316 µM
[16] = second compound 0.316 µM, first compound 1 µM
[17] = second compound 0.316 µM, first compound 3.16 µM
[18] = second compound 0.316 µM, first compound 10 µM
[19] = second compound 1 µM, first compound 0.0316 µM
[20] = second compound 1 µM, first compound 0.1 µM
[21] = second compound 1 µM, first compound 0.316 µM
[22] = second compound 1 µM, first compound 1 µM
[23] = second compound 1 µM, first compound 3.16 µM
[24] = second compound 1 µM, first compound 10 µM
[25] = second compound 3.16 µM, first compound 0.0316 µM
[26] = second compound 3.16 µM, first compound 0.1 µM
[27] = second compound 3.16 µM, first compound 0.316 µM
[28] = second compound 3.16 µM, first compound 1 µM
[29] = second compound 3.16 µM, first compound 3.16 µM
[30] = second compound 3.16 µM, first compound 10 µM
[31] = second compound 10 µM, first compound 0.0316 µM
[32] = second compound 10 µM, first compound 0.1 µM
[33] = second compound 10 µM, first compound 0.316 µM
[34] = second compound 10 µM, first compound 1 µM
[35] = second compound 10 µM, first compound 3.16 µM
[36] = second compound 10 µM, first compound 10 µM
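Note: spheroids exposed to compounds for one week.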
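Throughout, for viability, T/C: 100% = vehicle DMSO treated spheroids.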

With `CC1COCCN1c1cc(-c2ccnn2C)c2ccnc(-c3ccn[nH]3)c2n1` (centres undefined) + Nc1ccc(C#CCN(C(=O)Cc2ncc(C(F)(F)F)cc2C(F)(F)F)c2ccc(F)cc2)nn1 the IC50 (second compound 0.0316 µM) was 0.0877 µM, the IC50 (second compound 0.1 µM) was 0.0694 µM and the IC50 (second compound 0.316 µM) was 0.0595 µM. It also gave an IC50 (second compound 1 µM) of 0.0605 µM, an IC50 (second compound 3.16 µM) of 0.0566 µM and an IC50 (second compound 10 µM) of 0.0551 µM. The viability, T/C [1] was 74.6%, the viability, T/C [2] was 46.8% and the viability, T/C [3] was 11.6%. It also gave a viability, T/C [4] of 8.34%, a viability, T/C [5] of 8.12% and a viability, T/C [6] of 8.31%. It also gave a viability, T/C [7] of 92.1%, a viability, T/C [8] of 30.4% and a viability, T/C [9] of 10.6%. For the same compound, the viability, T/C [10] was 9.63%, the viability, T/C [11] was 8.82% and the viability, T/C [12] was 8.21%. It also gave a viability, T/C [13] of 82.1%, a viability, T/C [14] of 23.7% and a viability, T/C [15] of 8.36%. For the same compound, the viability, T/C [16] was 8.25%, the viability, T/C [17] was 7.35% and the viability, T/C [18] was 8.3%. The viability, T/C [19] was 89.5%, the viability, T/C [20] was 19.4% and the viability, T/C [21] was 9.09%. The viability, T/C [22] was 10.1%, the viability, T/C [23] was 7.46% and the viability, T/C [24] was 7.2%. For the same compound, the viability, T/C [25] was 77%, the viability, T/C [26] was 21.9% and the viability, T/C [27] was 17.6%. It also gave a viability, T/C [28] of 8.48%, a viability, T/C [29] of 7.93% and a viability, T/C [30] of 7.03%. The viability, T/C [31] was 82.8%, the viability, T/C [32] was 15% and the viability, T/C [33] was 9.59%. For the same compound, the viability, T/C [34] was 9.21%, the viability, T/C [35] was 10.5% and the viability, T/C [36] was 11.5%.
`COc1ccc([C@@H](O)c2cc(-c3ncnc4cc(N5CCOCC5)ccc34)c(F)cc2Cl)nn1` + Nc1ccc(C#CCN(C(=O)Cc2ncc(C(F)(F)F)cc2C(F)(F)F)c2ccc(F)cc2)nn1 was tested, and the IC50 (second compound 0.0316 µM) was 7.37 µM, the IC50 (second compound 0.1 µM) was 8.81 µM and the IC50 (second compound 0.316 µM) was 9.17 µM. It also gave an IC50 (second compound 1 µM) of 7.89 µM, an IC50 (second compound 3.16 µM) of 6.66 µM and an IC50 (second compound 10 µM) of over 10 µM. The viability, T/C [1] was 89.5%, the viability, T/C [2] was 96.2% and the viability, T/C [3] was 76.8%. For the same compound, the viability, T/C [4] was 88.4%, the viability, T/C [5] was 72.5% and the viability, T/C [6] was 41.7%. It also gave a viability, T/C [7] of 90.2%, a viability, T/C [8] of 106% and a viability, T/C [9] of 96.2%. It also gave a viability, T/C [10] of 90.8%, a viability, T/C [11] of 67.4% and a viability, T/C [12] of 47.8%. For the same compound, the viability, T/C [13] was 105%, the viability, T/C [14] was 93.1% and the viability, T/C [15] was 80.9%. For the same compound, the viability, T/C [16] was 95.4%, the viability, T/C [17] was 71.5% and the viability, T/C [18] was 47.6%. It also gave a viability, T/C [19] of 108%, a viability, T/C [20] of 93.9% and a viability, T/C [21] of 94%. For the same compound, the viability, T/C [22] was 90.4%, the viability, T/C [23] was 73.8% and the viability, T/C [24] was 43.2%. It also gave a viability, T/C [25] of 103%, a viability, T/C [26] of 92.6% and a viability, T/C [27] of 82.8%. For the same compound, the viability, T/C [28] was 75.5%, the viability, T/C [29] was 61.1% and the viability, T/C [30] was 43.4%. The viability, T/C [31] was 102%, the viability, T/C [32] was 99.7% and the viability, T/C [33] was 77.7%. The viability, T/C [34] was 73.7%, the viability, T/C [35] was 72.9% and the viability, T/C [36] was 45.8%.
